The results in this text go back to patent US11857560B2, “Pharmaceutical compositions comprising substituted nucleotides and nucleosides for treating viral infections” (priority 2013, dated 2024).

Data set [1] is described as follows: Cytotoxicity in GT1b replicon cells. In kind it is cell-based. (In antiviral work, replicon cells carry a viral genome segment that copies itself.)
A further data set has as its system Huh-7. Nature of the data set: Cytotoxicity panel, Huh-7. The following applies: read-out: Cytotoxicity (CC50 uM) Huh-7; Huh-7.
Data set [2] concerns Dengue Type 2. Nature of the data set: Anti-Dengue virus cytoprotection assay, Vero cells. The following applies: read-out: Dengue Type 2 Vero Cells (EC50 uM).
The subject of a further data set is Huh-7 cells. Nature of the data set: Toxicity in Huh-7 cells (Dengue assay). Conditions: read-out: CC50 uM; Cell Line Huh-7, pan-serotype Dengue table.
The nature of data set [3]: Toxicity in Huh-7 cells (Dengue assay). The following applies: human, Huh-7 cells.
Data set [4] deals with Dengue Type 2. Nature of the data set: Anti-Dengue virus cytoprotection assay, Huh-7 cells. Conditions: Huh-7, read-out: Dengue Type 2 Huh-7 Cells (EC50 uM).
Another data set relates to HepG2. Nature of the data set: Cytotoxicity panel, HepG2. The following applies: read-out: Cytotoxicity (CC50 uM) HepG2; HepG2.
Data set [5] is described as follows: Toxicity in Vero cells (Dengue assay). Conditions: African green monkey.
Data set [6] has as its system HCV replicon 2b (GT1b/2b NS5B chimera). The data set can be described thus: microbe, parasite or virus in culture. Conditions: Hepatitis C virus, read-out: EC50 (μM) 2b (GT1b/2b NS5B chimera). Format: cell-based.
A further data set in a line: Cytotoxicity panel, CEM. The following applies: human, CEM cells, Cytotoxicity (CC50 uM) CEM.
The nature of data set [7]: Cytotoxicity panel, HepG2. Conditions: human, HepG2 cells.
Data set [8] relates to HCV replicon 4a (GT1b/4a NS5B chimera). Nature of the data set: microbe, parasite or virus in culture. Format: cell-based. The following applies: Hepatitis C virus, read-out: EC50 (μM) 4a (GT1b/4a NS5B chimera).
The subject of data set [9] is HCV replicon 3a (GT1b/3a NS5B chimera). Nature of the data set: microbe, parasite or virus in culture. Format: cell-based. The following applies: Hepatitis C virus, read-out: EC50 (μM) 3a (GT1b/3a NS5B chimera).
A short description of data set [10]: Cytotoxicity panel, Huh-7. Conditions: human, Huh-7 cells, Cytotoxicity (CC50 uM) Huh-7, Huh-7.
The subject of a further data set is Influenza B. The data set can be described thus: Antiviral activity, Influenza B. In kind it is cell-based.
The next data set has as its system RSV. The data set can be described thus: Antiviral activity, RSV. Conditions: human respiratory syncytial virus. Format: cell-based.
Data set [11] relates to Influenza A H5N1 (low path). Nature of the data set: microbe, parasite or virus in culture. In kind it is cell-based. Conditions: H5N1, read-out: Influenza A H5N1 (low path) EC50.
The subject of a further data set is SARS. The data set can be described thus: microbe, parasite or virus in culture. The following applies: Severe acute respiratory syndrome coronavirus, read-out: SARS EC50.
A further data set concerns Influenza A H3N2. The data set can be described thus: Antiviral activity, Influenza A H3N2. In kind it is cell-based.
The subject of a further data set is Influenza A H1N1. Nature of the data set: Antiviral activity, Influenza A H1N1. In kind it is cell-based.
The next data set concerns RVFV. Nature of the data set: microbe, parasite or virus in culture. Format: cell-based. The following applies: Rift Valley fever virus, read-out: RVFV EC50.
The subject of the next data set is Tacaribe Virus. Nature of the data set: microbe, parasite or virus in culture. In kind it is cell-based. The following applies: Mammarenavirus tacaribeense, read-out: Tacaribe Virus EC50.
Another data set deals with Dengue Virus. The data set can be described thus: Antiviral activity, Dengue Virus. Format: cell-based.
In another data set the test system is Measles. Nature of the data set: Antiviral activity, Measles. Format: cell-based, measles virus. Conditions: Measles morbillivirus.
The next data set relates to VEEV. Nature of the data set: microbe, parasite or virus in culture. In kind it is cell-based. The following applies: Venezuelan equine encephalitis virus, read-out: VEEV EC50.
For another data set, the system named is West Nile Virus. The data set can be described thus: Antiviral activity, West Nile Virus. Format: cell-based. The following applies: read-out: West Nile Virus EC50.
A further data set deals with CHIK Virus. Nature of the data set: Antiviral activity, CHIK Virus. In kind it is cell-based. The following applies: Chikungunya virus, read-out: CHIK Virus EC50.
The nature of a further data set: Cytotoxicity panel, A204. Format: cell-based. The following applies: human, A204 cells.
The nature of data set [12]: Cytotoxicity panel, IEC-6. Format: cell-based. The following applies: rat, IEC-6 cells.
Data set [13] can be described thus: Cytotoxicity panel, BxPC3. Conditions: human, BxPC3 cells.
Another data set deals with CEM. The data set can be described thus: Cytotoxicity panel, CEM. Conditions: read-out: Cytotoxicity (CC50 uM) CEM.
Data set [14] can be described thus: Cellular toxicity in parallel with HCV replicon assay (XTT). Conditions: human.

Read-outs that look alike come from different tables or passages of the source. Where only a bound is given, the exact number is not on record here.

For the compound `CC(C)OC(=O)[C@H](C)NP(=O)(OC[C@H]1O[C@@H](n2ccc(=O)[nH]c2=S)[C@](C)(O)C1O)Oc1ccccc1` (stereo partly drawn) [ENUC-01911-2], the CC50 was > 10 µM in data set [1] and > 400 µM in the data set on Huh-7.
`CC(C)OC(=O)[C@H](C)N[P@](=O)(OC[C@H]1O[C@@H](n2ccc(=O)[nH]c2=S)[C@](C)(O)C1O)Oc1ccccc1` (stereo partly drawn) [ENUC-02023]: the results for the EC50 in the data set on Dengue Type 2 [2] and in the data set with Dengue Type 2 [4] were 2.35 µM and 5.62 µM, respectively. Further, the CC50 with Huh-7 cells is > 100 µM; in data set [3], > 100 µM; in the data set with HepG2 it was > 400 µM; in data set [5], > 100 µM.
Take `CC(C)OC(=O)[C@H](C)N[P@](=O)(OC[C@H]1O[C@@H](n2ccc(=O)[nH]c2=S)[C@](C)(O)C1O)Oc1ccccc1` (stereo partly drawn) [ENUC-02023-1]: the EC50 in data set [6] was determined as 0.0445 µM; in [8], 0.0254 µM; in data set [9], 0.0367 µM. The CC50 is > 400 µM in the data set “Cytotoxicity panel, CEM”; > 400 µM in data set [7]; 252 µM in data set [10].
As for `CC(C)OP1(=O)OC[C@H]2O[C@@H](n3ccc(=O)[nH]c3=O)C(F)[C@H]2O1` (stereo partly drawn) [EFVX- 01841], the EC50 with Influenza B (Influenza B virus, read-out: Influenza B EC50) is > 100 µM; in the data set with RSV, > 100 µM; in data set [11], > 100 µM; in the data set on SARS, 70 µM; with Influenza A H3N2 (Influenza A virus, H3N2; read-out: Influenza A H3N2 EC50), > 100 µM; in the data set with Influenza A H1N1 (Influenza A virus, H1N1; read-out: Influenza A H1N1 EC50), > 100 µM. The CC50 in the data set “in vitro” was > 89 µM.
`Nc1ccn([C@@H]2O[C@H](CO)C(O)[C@@H]2F)c(=S)n1` (stereo partly drawn) [EFVX-01857]: the EC50 with RVFV is > 100 µg/mL; in the data set with Influenza B (Influenza B virus; read-out: Influenza B EC50) it was > 100 µM; in the data set with RSV, > 100 µM; in the data set on Tacaribe Virus it was > 100 µg/mL; in the data set with Dengue Virus, > 100 µg/mL; with Measles, > 100 µM. Also, the EC50 in [11] is > 100 µM; in the data set on SARS, > 87 µM; in the data set with VEEV, > 100 µg/mL; with Influenza A H3N2 (Influenza A virus, H3N2, read-out: Influenza A H3N2 EC50) it was > 100 µM; in the data set with West Nile Virus, > 100 µg/mL; in the data set on CHIK Virus, > 100 µg/mL. Also, the EC50 with Influenza A H1N1 (Influenza A virus, H1N1, read-out: Influenza A H1N1 EC50) is > 100 µM. This compound showed a CC50 in “in vitro” of 87 µM.
On to `CC(C)OC(=O)[C@H](C)N[P@@](=O)(OC[C@H]1O[C@@H](n2ccc(=O)[nH]c2=S)[C@](C)(O)C1O)Oc1ccccc1` (stereo partly drawn) [ENUC-02024], for which the EC50 worked out at 56.2 µM in the data set with Dengue Type 2 [2] and 24.9 µM with Dengue Type 2 [4]. Besides, the CC50 in [3] and in [5] was > 100 µM each time.
Consider `CC(C)OC(=O)[C@H](C)NP(=O)(OC[C@H]1O[C@@H](n2ccc(=S)[nH]c2=O)[C@](C)(F)C1O)Oc1ccccc1` (stereo partly drawn) [ENUC-01943-1], for which the CC50 was > 200 µM in “Cytotoxicity panel, A204”; 136 µM in the data set “Cytotoxicity panel, CEM”; > 400 µM in data set [12]; 199 µM in [7]; > 300 µM in [13].
As for `CC(C)OC(=O)[C@H](C)NP(=O)(OC[C@H]1O[C@@H](n2ccc(=S)[nH]c2=O)[C@@H](O)C1O)Oc1ccccc1` (stereo partly drawn) [ENUC-02071-1], the CC50 is > 400 µM with CEM; 241 µM in the data set “Cytotoxicity panel, CEM”; 381 µM in data set [10]. The CC50 at 72 h in data set [14] was > 100 µM.
